Measurements: patent US20140051576A1, “ACTIVE COMPOUND COMBINATIONS COMPRISING A (THIO)CARBOXAMIDE DERIVATIVE AND AN INSECTICIDAL OR ACARICIDAL OR NEMATICIDAL ACTIVE COMPOUND” (priority 2011, published 2014)
Like-named read-outs stand apart in the source and are kept apart here.

What was measured:
Myzus persicae = Myzus persicae - Test (MYZUPE spray application); type: in vivo
Excerpt: Myzus persicae—Test; (MYZUPE Spray Application)
Chinese cabbage (Brassica pekinesis) leaf—disks infected with all instars of the green peach aphid (Myzus persicae), are sprayed with a preparation of the active ingredient at the desired concentration.
100% means that all aphids have been killed; 0% means that none of the aphids have been killed.

Phaedon cochleariae = Phaedon cochleariae Larvae - Test (PHAECO spray application); type: in vivo
Excerpt: Phaedon cochleariae—Test; (PHAECO Spray Application)
Solvent: 78 parts by weight of acetone • 1.5 parts by weight of N,N-dimethylformamide Emulsifier: 0.5 parts by weight of alkylarylpolyglycolether
Once dry, the leaf discs are infested with mustard beetle larvae (Phaedon cochleariae).

Spodoptera frugiperda = test: whole plant or invertebrate
Method: Spodoptera frugiperda—Test (SPODFR Spray Application)
Solvent: 78.0 parts by weight acetone • 1.5 parts by weight N,N-dimethylformamide Emulsifier: 0.5 parts by weight alkylarylpolyglycolether
Maize (Zea mais) leaf sections are sprayed with a preparation of the active ingredient of the desired concentration. Once dry, the leaf sections are infested with larvae of the fall armyworm (Spodoptera frugiperda).
After the specified period of time, the mortality in % is determined. 100% means that all caterpillars have been killed and 0% means that none of the caterpillars have been killed.

Tetranychus urticae = Tetranychus urticae - Test; OP-resistant (TETRUR spray application); type: in vivo
Excerpt: Tetranychus urticae—Test; OP-Resistant (TETRUR Spray Application)
French beans (Phaseolus vulgaris) which are heavily infested with all stages of the two spotted spidermite (Tetranychus urticae), are sprayed with a preparation of the active ingredient at the desired concentration.

[1] = Myzus persicae, 144 h, read-out: Mortality in % after 6 days obs.
[2] = Phaedon cochleariae, 144 h, read-out: Mortality in % after 6 days obs.
[3] = Spodoptera frugiperda, 144 h, read-out: Mortality in % after 6 days obs.
[4] = Tetranychus urticae, 48 h, read-out: Mortality in % after 2 days obs.
[5] = Myzus persicae, 24 h, read-out: Mortality in % after 1 day obs.
[6] = Phaedon cochleariae, 48 h, read-out: Mortality in % after 2 days obs.
[7] = Spodoptera frugiperda, 48 h, read-out: Mortality in % after 2 days obs.
[8] = Tetranychus urticae, 144 h, read-out: Mortality in % after 6 days obs.

Cc1c(F)c(F)c(COC(=O)[C@@H]2[C@H](/C=C(\Cl)C(F)(F)F)C2(C)C)c(F)c1F (racemic) [B-3A.43, Tefluthrin]
mortality at 4 g/ha (Myzus persicae; [1]): 0% | mortality at 20 g/ha (Phaedon cochleariae; [2]): 0% | mortality at 0.8 g/ha (Spodoptera frugiperda; [3]): 0% | mortality at 4 g/ha (Spodoptera frugiperda; [3]): 0% | mortality at 20 g/ha (Tetranychus urticae; [4]): 0%

CC(C)c1ccccc1CN(C(=O)c1c(C(F)F)nn(C)c1F)C1CC1 [A-1, N-cyclopropyl-3-(difluoromethyl)-5-fluoro-N-(2-isopropylbenzyl)-1-methyl-1H-pyrazole-4-carboxamide]
mortality at 100 g/ha (Myzus persicae; [5]): 0% | mortality at 100 g/ha (Myzus persicae; [1]): 0% | mortality at 100 g/ha (Phaedon cochleariae; [6]): 0% | mortality at 100 g/ha (Phaedon cochleariae; [2]): 0% | mortality at 100 g/ha (Spodoptera frugiperda; [7]): 0% | mortality at 100 g/ha (Spodoptera frugiperda; [3]): 0% | mortality at 100 g/ha (Tetranychus urticae; [4]): 0% | mortality at 100 g/ha (Tetranychus urticae; [8]): 0%

CC(C)c1ccc(Cl)cc1CN(C(=O)c1c(C(F)F)nn(C)c1F)C1CC1 [A-5, N-(5-chloro-2-isopropylbenzyl)-N-cyclopropyl-3-(difluoromethyl)-5-fluoro-1-methyl-1H-pyrazole-4-carboxamide]
mortality at 100 g/ha (Myzus persicae; Myzus persicae, 24 h, 100 g/ha, read-out: Mortality in % after 1 day obs.): 0% | mortality at 200 g/ha (Myzus persicae; Myzus persicae, 24 h, 200 g/ha, read-out: Mortality in % after 1 day obs.): 0% | mortality at 100 g/ha (Myzus persicae; Myzus persicae, 144 h, 100 g/ha, read-out: Mortality in % after 6 days obs.): 0% | mortality at 200 g/ha (Myzus persicae; Myzus persicae, 144 h, 200 g/ha, read-out: Mortality in % after 6 days obs.): 0% | mortality at 100 g/ha (Phaedon cochleariae; Phaedon cochleariae, 48 h, 100 g/ha, read-out: Mortality in % after 2 days obs.): 0% | mortality at 150 g/ha (Phaedon cochleariae; Phaedon cochleariae, 48 h, 150 g/ha, read-out: Mortality in % after 2 days obs.): 0% | mortality at 100 g/ha (Phaedon cochleariae; Phaedon cochleariae, 144 h, 100 g/ha, read-out: Mortality in % after 6 days obs.): 0% | mortality at 200 g/ha (Phaedon cochleariae; Phaedon cochleariae, 144 h, 200 g/ha, read-out: Mortality in % after 6 days obs.): 0% | mortality at 100 g/ha (Spodoptera frugiperda; [7]): 0% | mortality at 200 g/ha (Spodoptera frugiperda; [7]): 0% | mortality at 100 g/ha (Spodoptera frugiperda; [3]): 0% | mortality at 200 g/ha (Spodoptera frugiperda; [3]): 0% | mortality at 200 g/ha (Tetranychus urticae; Tetranychus urticae, 144 h, 200 g/ha, single active ingredient, 6 days, read-out: Mortality in % after 6 days obs.): 0%

CC(C)c1ccc(F)cc1CN(C(=O)c1c(C(F)F)nn(C)c1F)C1CC1 [A-7, N-cyclopropyl-3-(difluoromethyl)-5-fluoro-N-(5-fluoro-2-isopropylbenzyl)-1-methyl-1H-pyrazole-4-carboxamide]
mortality at 100 g/ha (Myzus persicae; [5]): 0% | mortality at 200 g/ha (Myzus persicae; [5]): 0% | mortality at 100 g/ha (Myzus persicae; [1]): 0% | mortality at 200 g/ha (Myzus persicae; [1]): 0% | mortality at 100 g/ha (Phaedon cochleariae; [6]): 0% | mortality at 150 g/ha (Phaedon cochleariae; [6]): 0% | mortality at 100 g/ha (Phaedon cochleariae; [2]): 0% | mortality at 200 g/ha (Phaedon cochleariae; [2]): 0% | mortality at 100 g/ha (Spodoptera frugiperda; [7]): 0% | mortality at 150 g/ha (Spodoptera frugiperda; [7]): 0% | mortality at 100 g/ha (Spodoptera frugiperda; [3]): 0% | mortality at 100 g/ha (Tetranychus urticae; [4]): 0% | mortality at 150 g/ha (Tetranychus urticae; [4]): 0% | mortality at 200 g/ha (Tetranychus urticae; [4]): 0%

Cc1ccc(C(C)C)c(CN(C(=O)c2c(C(F)F)nn(C)c2F)C2CC2)c1 [A-12, N-cyclopropyl-3-(difluoromethyl)-5-fluoro-N-(2-isopropyl-5-methylbenzyl)-1-methyl-1H-pyrazole-4-carboxamide]
mortality at 100 g/ha (Myzus persicae; [5]): 0% | mortality at 200 g/ha (Myzus persicae; [5]): 0% | mortality at 100 g/ha (Myzus persicae; [1]): 0% | mortality at 200 g/ha (Myzus persicae; [1]): 0% | mortality at 100 g/ha (Phaedon cochleariae; [6]): 0% | mortality at 100 g/ha (Phaedon cochleariae; [2]): 0% | mortality at 200 g/ha (Phaedon cochleariae; [2]): 0% | mortality at 100 g/ha (Spodoptera frugiperda; [7]): 0% | mortality at 200 g/ha (Spodoptera frugiperda; [7]): 0% | mortality at 100 g/ha (Spodoptera frugiperda; [3]): 0% | mortality at 100 g/ha (Tetranychus urticae; [4]): 0% | mortality at 150 g/ha (Tetranychus urticae; [4]): 0% | mortality at 100 g/ha (Tetranychus urticae; [8]): 0%

Cn1nc(C(F)F)c(C(=O)N(Cc2cc(Cl)ccc2C(F)(F)F)C2CC2)c1F [A-15, N-[5-chloro-2-(trifluoromethyl)benzyl]-N-cyclopropyl-3-(difluoromethyl)-5-fluoro-1-methyl-1H-pyrazole-4-carboxamide]
mortality at 500 g/ha (Myzus persicae; [5]): 0% | mortality at 500 g/ha (Myzus persicae; [1]): 0% | mortality at 500 g/ha (Phaedon cochleariae; [6]): 0% | mortality at 500 g/ha (Phaedon cochleariae; [2]): 0% | mortality at 500 g/ha (Spodoptera frugiperda; [3]): 0% | mortality at 500 g/ha (Tetranychus urticae; [4]): 0% | mortality at 500 g/ha (Tetranychus urticae; [8]): 0%

Cn1nc(C(F)F)c(C(=O)N(Cc2c(Cl)cccc2C(F)(F)F)C2CC2)c1F [A-17, N-[2-chloro-6-(trifluoromethyl)benzyl]-N-cyclopropyl-3-(difluoromethyl)-5-fluoro-1-methyl-1H-pyrazole-4-carboxamide]
mortality at 100 g/ha (Myzus persicae; [5]): 0% | mortality at 100 g/ha (Myzus persicae; [1]): 0% | mortality at 100 g/ha (Phaedon cochleariae; [6]): 0% | mortality at 100 g/ha (Phaedon cochleariae; [2]): 0% | mortality at 100 g/ha (Spodoptera frugiperda; [7]): 0% | mortality at 100 g/ha (Spodoptera frugiperda; [3]): 0% | mortality at 100 g/ha (Tetranychus urticae; [4]): 0% | mortality at 100 g/ha (Tetranychus urticae; [8]): 0%

Cn1nc(C(F)F)c(C(=O)N(Cc2c(C(F)(F)F)ccc(Cl)c2F)C2CC2)c1F [A-18, N-[3-chloro-2-fluoro-6-(trifluoromethyl)benzyl]-N-cyclopropyl-3-(difluoromethyl)-5-fluoro-1-methyl-1H-pyrazole-4-carboxamide]
mortality at 500 g/ha (Myzus persicae; [5]): 0% | mortality at 500 g/ha (Myzus persicae; [1]): 0% | mortality at 500 g/ha (Phaedon cochleariae; [6]): 0% | mortality at 500 g/ha (Phaedon cochleariae; [2]): 0% | mortality at 500 g/ha (Spodoptera frugiperda; [3]): 0% | mortality at 500 g/ha (Tetranychus urticae; [4]): 0% | mortality at 500 g/ha (Tetranychus urticae; [8]): 0%

CNC(=O)O/N=C/C(C)(C)SC [B-1A.2, Aldicarb]
Mortality in % after 6 days obs. (Myzus persicae; 20 g/ha): 80% | Mortality in % after 1 day obs. (Myzus persicae; 100 g/ha): 0% | Mortality in % after 6 days obs. (Phaedon cochleariae; 100 g/ha): 0% | Mortality in % after 2 days obs. (Spodoptera frugiperda; 100 g/ha): 0% | Mortality in % after 6 days obs. (Spodoptera frugiperda; 100 g/ha): 33%

CS/C(C)=N\OC(=O)N(C)SN(C)C(=O)O/N=C(\C)SC [B-1A.21, Thiodicarb]
Mortality in % after 6 days obs. (Myzus persicae; 100 g/ha): 0% | Mortality in % after 6 days obs. (Spodoptera frugiperda; 4 g/ha): 0% | Mortality in % after 6 days obs. (Spodoptera frugiperda; 20 g/ha): 33% | Mortality in % after 6 days obs. (Tetranychus urticae; 100 g/ha, single active ingredient, 6 days): 0%

CC1(C)[C@H](/C=C(\Cl)C(F)(F)F)[C@@H]1C(=O)O[C@@H](C#N)c1cccc(Oc2ccccc2)c1 [B-3A.12, L-Cyhalothrin]
Mortality in % after 2 days obs. (Phaedon cochleariae; 0.8 g/ha): 67% | Mortality in % after 6 days obs. (Spodoptera frugiperda; 0.8 g/ha): 83% | Mortality in % after 2 days obs. (Tetranychus urticae; 0.16 g/ha): 0% | Mortality in % after 2 days obs. (Tetranychus urticae; 0.8 g/ha): 70% | Mortality in % after 6 days obs. (Tetranychus urticae; 0.8 g/ha, single active ingredient, 6 days): 70%

CN1COCN(Cc2cnc(Cl)s2)/C1=N\[N+](=O)[O-] [B-4A.7, Thiamethoxam]
mortality at 4 g/ha (Myzus persicae; [5]): 0% | mortality at 0.8 g/ha (Myzus persicae; [1]): 70% | mortality at 0.8 g/ha (Phaedon cochleariae; [2]): 0% | mortality at 20 g/ha (Tetranychus urticae; [4]): 0% | mortality at 4 g/ha (Tetranychus urticae; [8]): 0%
